According to ChEMBL document CHEMBL1955728, “3,5-Disubstituted indole derivatives as selective human neuronal nitric oxide synthase (nNOS) inhibitors” (Bioorg Med Chem Lett, 2012):
pIC50: −log10 of the molar value. Activity calls are given as the source filed them. The rule behind the calls is not given here.

Key:
[1] = biological target: Nitric oxide synthase, inducible (Homo sapiens, UniProt P35228); assay: Inhibition of human iNOS expressed in baculovirus infected insect Sf9 cells assessed as conversion of [3H]-L-arginine to [3H]-L-citrulline
Nitric oxide synthase, inducible, sequence (P35228 whole entry): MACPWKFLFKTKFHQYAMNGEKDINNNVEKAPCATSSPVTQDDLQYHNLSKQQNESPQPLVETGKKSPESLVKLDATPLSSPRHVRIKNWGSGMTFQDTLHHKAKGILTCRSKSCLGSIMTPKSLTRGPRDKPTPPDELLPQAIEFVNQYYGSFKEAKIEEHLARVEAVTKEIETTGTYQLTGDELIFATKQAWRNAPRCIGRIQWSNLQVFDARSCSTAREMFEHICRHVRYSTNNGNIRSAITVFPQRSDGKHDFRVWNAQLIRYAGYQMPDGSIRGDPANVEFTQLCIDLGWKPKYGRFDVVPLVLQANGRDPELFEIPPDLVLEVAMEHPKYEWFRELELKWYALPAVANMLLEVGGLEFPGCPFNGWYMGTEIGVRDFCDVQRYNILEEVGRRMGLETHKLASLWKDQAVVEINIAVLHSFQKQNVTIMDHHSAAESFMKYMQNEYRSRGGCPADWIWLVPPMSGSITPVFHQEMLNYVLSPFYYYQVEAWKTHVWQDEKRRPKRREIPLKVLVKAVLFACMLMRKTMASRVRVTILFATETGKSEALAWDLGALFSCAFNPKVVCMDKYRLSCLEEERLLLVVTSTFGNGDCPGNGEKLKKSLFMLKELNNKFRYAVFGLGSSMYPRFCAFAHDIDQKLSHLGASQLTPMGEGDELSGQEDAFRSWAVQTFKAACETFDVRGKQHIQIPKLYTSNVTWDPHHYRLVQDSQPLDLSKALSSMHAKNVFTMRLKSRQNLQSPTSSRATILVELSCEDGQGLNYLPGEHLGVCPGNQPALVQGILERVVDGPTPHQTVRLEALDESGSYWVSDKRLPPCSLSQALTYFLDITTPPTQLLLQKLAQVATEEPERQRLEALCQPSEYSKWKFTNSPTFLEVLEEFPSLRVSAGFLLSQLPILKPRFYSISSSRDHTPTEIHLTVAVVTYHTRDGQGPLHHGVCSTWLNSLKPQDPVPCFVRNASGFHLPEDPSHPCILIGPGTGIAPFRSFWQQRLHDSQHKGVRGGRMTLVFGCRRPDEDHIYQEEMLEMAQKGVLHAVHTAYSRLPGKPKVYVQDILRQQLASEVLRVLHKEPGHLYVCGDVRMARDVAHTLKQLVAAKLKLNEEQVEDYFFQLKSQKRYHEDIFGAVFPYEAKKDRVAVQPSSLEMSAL

[2] = biological target: Nitric oxide sythases; iNOS & nNOS (Homo sapiens) (UniProt P29475+P35228); assay: Selectivity ratio of IC50 for human iNOS to IC50 for human nNOS
Nitric oxide sythases; iNOS & nNOS (Homo sapiens), sequence (P29475 whole entry, looked up): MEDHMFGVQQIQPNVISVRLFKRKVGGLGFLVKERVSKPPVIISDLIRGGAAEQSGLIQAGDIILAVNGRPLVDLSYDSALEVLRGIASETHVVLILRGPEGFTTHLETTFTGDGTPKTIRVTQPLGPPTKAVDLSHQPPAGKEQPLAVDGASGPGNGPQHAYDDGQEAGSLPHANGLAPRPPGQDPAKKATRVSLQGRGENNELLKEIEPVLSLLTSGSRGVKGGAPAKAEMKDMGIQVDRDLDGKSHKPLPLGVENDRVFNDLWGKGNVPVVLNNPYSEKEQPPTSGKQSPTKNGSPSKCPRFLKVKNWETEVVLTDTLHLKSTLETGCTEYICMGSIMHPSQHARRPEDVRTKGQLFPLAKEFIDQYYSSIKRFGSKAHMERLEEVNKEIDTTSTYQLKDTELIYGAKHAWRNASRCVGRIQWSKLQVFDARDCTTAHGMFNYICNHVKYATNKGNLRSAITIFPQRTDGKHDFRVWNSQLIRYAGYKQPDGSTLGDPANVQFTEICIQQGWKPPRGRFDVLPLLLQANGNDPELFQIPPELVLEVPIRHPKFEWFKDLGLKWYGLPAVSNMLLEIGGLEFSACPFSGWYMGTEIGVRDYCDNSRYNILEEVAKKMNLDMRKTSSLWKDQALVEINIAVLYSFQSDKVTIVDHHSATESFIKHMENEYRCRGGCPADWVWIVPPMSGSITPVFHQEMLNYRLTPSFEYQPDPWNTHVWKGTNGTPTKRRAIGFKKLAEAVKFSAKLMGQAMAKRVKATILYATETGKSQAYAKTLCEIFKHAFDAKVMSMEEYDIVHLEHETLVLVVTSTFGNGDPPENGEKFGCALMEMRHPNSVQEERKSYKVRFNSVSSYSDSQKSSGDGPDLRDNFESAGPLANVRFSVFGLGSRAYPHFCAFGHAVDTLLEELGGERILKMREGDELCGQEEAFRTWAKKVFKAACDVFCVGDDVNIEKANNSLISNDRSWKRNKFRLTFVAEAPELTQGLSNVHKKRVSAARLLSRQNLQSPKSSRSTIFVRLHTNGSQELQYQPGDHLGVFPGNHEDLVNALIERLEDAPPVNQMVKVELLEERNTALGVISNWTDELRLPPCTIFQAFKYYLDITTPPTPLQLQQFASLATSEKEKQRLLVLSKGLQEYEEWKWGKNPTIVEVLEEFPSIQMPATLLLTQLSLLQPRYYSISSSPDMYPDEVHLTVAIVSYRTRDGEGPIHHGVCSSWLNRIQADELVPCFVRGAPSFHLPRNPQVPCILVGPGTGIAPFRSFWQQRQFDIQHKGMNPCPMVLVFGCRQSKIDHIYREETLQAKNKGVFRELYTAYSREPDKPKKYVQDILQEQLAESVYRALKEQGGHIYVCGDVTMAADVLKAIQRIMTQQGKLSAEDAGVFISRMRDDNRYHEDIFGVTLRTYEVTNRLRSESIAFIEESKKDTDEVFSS
Nitric oxide sythases; iNOS & nNOS (Homo sapiens), sequence (P35228 whole entry, looked up): as the sequence (P35228 whole entry) above

Homo sapiens = species on record: Homo sapiens; assay: Selectivity ratio of IC50 for human eNOS to IC50 for human nNOS
Rattus norvegicus [3] = assay: Antihyperalgesic activity in rat L5/L6 SNL model of neuropathic pain assessed as reversal of thermal hyperalgesia at 10 mg/kg, ip measured after 30 to 120 mins; assay type: functional, organism-based; design: dose 10 mg/kg
Nitric oxide synthase 1 [4] = biological target: Nitric oxide synthase 1 (Homo sapiens, UniProt P29475); assay: Inhibition of human nNOS expressed in baculovirus infected insect Sf9 cells assessed as conversion of [3H]-L-arginine to [3H]-L-citrulline
Nitric oxide synthase 1 (Homo sapiens, UniProt P29475), sequence (P29475 whole entry): as the sequence (P29475 whole entry, looked up) above

Nitric oxide synthase 3 = biological target: T1, Nitric oxide synthase 3 (Homo sapiens, UniProt P29474); assay: Inhibition of human eNOS expressed in baculovirus infected insect Sf9 cells assessed as conversion of [3H]-L-arginine to [3H]-L-citrulline
T1 sequence (P29474 whole entry): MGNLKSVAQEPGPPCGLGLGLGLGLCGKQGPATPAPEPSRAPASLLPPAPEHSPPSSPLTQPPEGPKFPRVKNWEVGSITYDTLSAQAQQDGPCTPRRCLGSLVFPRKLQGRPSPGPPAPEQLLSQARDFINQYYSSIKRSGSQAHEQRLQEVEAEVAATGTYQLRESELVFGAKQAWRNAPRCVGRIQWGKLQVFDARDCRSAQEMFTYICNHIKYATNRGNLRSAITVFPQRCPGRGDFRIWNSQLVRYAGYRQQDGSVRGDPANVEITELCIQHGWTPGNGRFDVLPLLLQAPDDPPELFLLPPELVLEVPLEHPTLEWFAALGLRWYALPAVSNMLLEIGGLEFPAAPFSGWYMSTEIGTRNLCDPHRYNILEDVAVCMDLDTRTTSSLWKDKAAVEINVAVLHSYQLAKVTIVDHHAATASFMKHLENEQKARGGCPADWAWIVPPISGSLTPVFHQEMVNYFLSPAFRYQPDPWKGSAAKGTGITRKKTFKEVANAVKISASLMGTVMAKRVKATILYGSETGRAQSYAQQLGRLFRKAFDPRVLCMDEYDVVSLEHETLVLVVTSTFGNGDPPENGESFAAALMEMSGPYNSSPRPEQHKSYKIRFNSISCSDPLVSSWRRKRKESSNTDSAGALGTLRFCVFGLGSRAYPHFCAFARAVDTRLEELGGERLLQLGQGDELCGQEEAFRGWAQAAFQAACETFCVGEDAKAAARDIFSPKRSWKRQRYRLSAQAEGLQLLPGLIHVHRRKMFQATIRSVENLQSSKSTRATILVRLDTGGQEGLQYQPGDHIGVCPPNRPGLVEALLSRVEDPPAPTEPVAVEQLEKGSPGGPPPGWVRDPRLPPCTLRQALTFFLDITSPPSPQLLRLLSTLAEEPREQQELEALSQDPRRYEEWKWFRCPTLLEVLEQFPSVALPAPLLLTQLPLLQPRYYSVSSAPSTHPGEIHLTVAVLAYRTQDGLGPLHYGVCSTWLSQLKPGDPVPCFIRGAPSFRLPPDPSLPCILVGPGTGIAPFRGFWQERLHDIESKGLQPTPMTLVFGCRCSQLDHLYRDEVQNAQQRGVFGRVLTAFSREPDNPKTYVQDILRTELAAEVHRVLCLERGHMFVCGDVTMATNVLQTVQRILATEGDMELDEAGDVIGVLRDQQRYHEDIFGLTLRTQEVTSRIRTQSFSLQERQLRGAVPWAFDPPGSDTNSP

Nitric oxide synthase 1 [5] = biological target: Nitric oxide synthase 1 (Rattus norvegicus, UniProt P29476); assay: Inhibition of rat nNOS
Nitric oxide synthase 1 (Rattus norvegicus, UniProt P29476), sequence (P29476 whole entry): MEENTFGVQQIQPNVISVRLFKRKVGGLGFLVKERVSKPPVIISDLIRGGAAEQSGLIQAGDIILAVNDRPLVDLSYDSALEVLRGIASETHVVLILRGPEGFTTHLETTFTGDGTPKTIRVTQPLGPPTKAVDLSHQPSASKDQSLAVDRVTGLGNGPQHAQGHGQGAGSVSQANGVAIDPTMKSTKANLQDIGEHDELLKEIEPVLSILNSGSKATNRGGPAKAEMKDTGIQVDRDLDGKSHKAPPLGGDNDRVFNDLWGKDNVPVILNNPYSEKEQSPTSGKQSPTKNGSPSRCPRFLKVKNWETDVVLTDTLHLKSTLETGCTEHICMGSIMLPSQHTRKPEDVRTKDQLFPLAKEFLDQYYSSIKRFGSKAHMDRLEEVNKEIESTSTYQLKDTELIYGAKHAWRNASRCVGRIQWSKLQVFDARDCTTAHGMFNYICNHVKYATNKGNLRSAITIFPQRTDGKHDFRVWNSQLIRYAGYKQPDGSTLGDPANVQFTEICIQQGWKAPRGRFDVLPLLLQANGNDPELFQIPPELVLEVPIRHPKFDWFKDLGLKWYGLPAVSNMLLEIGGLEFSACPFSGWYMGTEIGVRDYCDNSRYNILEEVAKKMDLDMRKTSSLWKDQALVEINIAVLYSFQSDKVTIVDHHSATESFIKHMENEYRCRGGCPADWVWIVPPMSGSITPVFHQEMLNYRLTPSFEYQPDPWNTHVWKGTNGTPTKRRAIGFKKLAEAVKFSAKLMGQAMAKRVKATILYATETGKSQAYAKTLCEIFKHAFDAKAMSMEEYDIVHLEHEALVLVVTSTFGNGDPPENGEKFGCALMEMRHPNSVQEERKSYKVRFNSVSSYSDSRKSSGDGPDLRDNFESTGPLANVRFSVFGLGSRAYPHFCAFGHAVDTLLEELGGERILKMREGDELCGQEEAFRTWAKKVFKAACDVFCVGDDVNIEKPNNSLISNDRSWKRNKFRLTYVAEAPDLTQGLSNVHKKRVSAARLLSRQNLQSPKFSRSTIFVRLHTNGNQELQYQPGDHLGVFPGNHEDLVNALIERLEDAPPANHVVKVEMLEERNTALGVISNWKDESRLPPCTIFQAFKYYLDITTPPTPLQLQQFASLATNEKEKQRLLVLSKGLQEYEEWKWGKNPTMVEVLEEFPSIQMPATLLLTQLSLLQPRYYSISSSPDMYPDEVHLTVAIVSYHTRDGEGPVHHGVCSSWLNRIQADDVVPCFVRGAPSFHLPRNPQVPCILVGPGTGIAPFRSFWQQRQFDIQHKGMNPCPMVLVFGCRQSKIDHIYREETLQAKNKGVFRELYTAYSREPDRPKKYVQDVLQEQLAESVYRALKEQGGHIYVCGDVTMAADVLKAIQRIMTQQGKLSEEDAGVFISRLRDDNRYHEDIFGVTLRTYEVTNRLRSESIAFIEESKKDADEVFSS

Cytochrome P450 2C9 = Cytochrome P450 2C9 (Homo sapiens, UniProt P11712); assay: Inhibition of human CYP2C9; assay type: ADME
Cytochrome P450 2C9, sequence (P11712 whole entry): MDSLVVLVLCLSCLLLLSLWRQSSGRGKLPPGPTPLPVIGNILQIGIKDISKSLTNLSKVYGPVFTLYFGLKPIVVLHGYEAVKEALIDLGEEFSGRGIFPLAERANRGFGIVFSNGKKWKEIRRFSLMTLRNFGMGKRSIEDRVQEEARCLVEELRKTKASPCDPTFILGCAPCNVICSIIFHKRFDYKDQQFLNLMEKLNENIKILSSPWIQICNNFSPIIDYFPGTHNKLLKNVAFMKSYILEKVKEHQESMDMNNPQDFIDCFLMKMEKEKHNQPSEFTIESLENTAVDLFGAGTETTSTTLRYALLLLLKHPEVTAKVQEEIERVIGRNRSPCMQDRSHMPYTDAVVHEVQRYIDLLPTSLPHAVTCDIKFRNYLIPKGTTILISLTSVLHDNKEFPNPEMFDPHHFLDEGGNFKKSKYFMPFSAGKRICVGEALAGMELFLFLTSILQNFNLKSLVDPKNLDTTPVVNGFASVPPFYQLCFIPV

Cytochrome P450 3A4 = Cytochrome P450 3A4 (Homo sapiens, UniProt P08684); assay: Inhibition of human CYP3A4; assay type: ADME
Cytochrome P450 2D6 = Cytochrome P450 2D6 (Homo sapiens, UniProt P10635); assay: Inhibition of human CYP2D6; assay type: ADME
Cytochrome P450 2C19 = Cytochrome P450 2C19 (Homo sapiens, UniProt P33261); assay: Inhibition of human CYP2C19; assay type: ADME
Cytochrome P450 2C19, sequence (P33261 whole entry): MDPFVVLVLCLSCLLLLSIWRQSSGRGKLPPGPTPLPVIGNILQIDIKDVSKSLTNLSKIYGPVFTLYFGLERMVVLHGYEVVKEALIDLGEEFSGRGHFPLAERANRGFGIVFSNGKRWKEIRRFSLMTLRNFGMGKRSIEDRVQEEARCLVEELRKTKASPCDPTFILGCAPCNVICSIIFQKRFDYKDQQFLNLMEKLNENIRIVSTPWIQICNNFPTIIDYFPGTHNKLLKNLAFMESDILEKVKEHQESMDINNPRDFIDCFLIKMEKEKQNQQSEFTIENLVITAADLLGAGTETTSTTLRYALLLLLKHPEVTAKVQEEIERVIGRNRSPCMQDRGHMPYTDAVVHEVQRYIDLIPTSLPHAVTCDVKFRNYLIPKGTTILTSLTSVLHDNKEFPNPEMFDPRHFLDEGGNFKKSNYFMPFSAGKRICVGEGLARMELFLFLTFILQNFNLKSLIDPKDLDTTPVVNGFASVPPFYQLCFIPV

Rattus norvegicus [6] = assay: Antihyperalgesic activity in rat L5/L6 SNL model of neuropathic pain assessed as reversal of thermal hyperalgesia at 10 mg/kg, ip measured after 30 mins; assay type: functional; conditions: route intraperitoneal
Cytochrome P450 1A2 = biological target: T2, Cytochrome P450 1A2 (Homo sapiens, UniProt P05177); assay: Inhibition of human CYP1A2; assay type: ADME
T2 sequence (P05177 whole entry): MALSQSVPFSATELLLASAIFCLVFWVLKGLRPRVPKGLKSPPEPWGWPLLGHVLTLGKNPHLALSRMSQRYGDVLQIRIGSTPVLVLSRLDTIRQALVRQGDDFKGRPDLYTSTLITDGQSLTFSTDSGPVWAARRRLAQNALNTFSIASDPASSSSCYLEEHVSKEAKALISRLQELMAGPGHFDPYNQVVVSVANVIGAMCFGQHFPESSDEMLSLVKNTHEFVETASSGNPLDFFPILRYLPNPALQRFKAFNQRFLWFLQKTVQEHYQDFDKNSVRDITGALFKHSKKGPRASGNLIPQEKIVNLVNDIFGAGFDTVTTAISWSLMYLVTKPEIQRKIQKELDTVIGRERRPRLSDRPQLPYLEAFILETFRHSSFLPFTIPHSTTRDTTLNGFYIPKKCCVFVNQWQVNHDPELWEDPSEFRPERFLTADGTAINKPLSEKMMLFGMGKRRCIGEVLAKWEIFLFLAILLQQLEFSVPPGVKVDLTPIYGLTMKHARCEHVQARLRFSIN

[7] = Vasoconstrictive activity in human arteries assessed as inhibition of acetylcholine-induced vasorelaxation at 10 uM in presence of thromboxane A2 mimetic agent U46619; assay type: tissue-based, Artery

Row | SMILES | Ratio IC50 [2] | Ratio IC50 (Homo sapiens) | pIC50 (Nitric oxide synthase 1 [4]) | pIC50 (Nitric oxide synthase 3) | further results
1 | CSC(=N)Nc1ccc2[nH]cc(C3=CCN(C)CC3)c2c1 | – | – | – | – | pIC50 [1]: 4.77
2 | CN1CC=C(c2c[nH]c3cc(NC(=N)c4cccs4)ccc23)CC1 | 15 | 33 | – | – | –
3 | CS/C(N)=N/c1ccc2[nH]cc(C3=CCN(C)CC3)c2c1 | 8 | 16 | – | – | –
4 | CN1CC=C(c2c[nH]c3ccc(/N=C(\N)c4ccco4)cc23)CC1 | 106 | 66 | – | – | Activity (Rattus norvegicus [3]): Active
5 | CN1CCC(c2c[nH]c3ccc(NC(=N)c4ccccc4)cc23)CC1 | – | 14 | 4.74 | 3.60 | –
6 | CCS/C(N)=N/c1ccc2[nH]cc(C3=CCN(C)CC3)c2c1 | – | 22 | – | – | –
7 | CN1CCC(c2c[nH]c3ccc(/N=C(\N)c4cccs4)cc23)CC1 | 57 | – | – | – | –
8 | CN1CCC(c2c[nH]c3ccc(NC(=N)c4cccs4)cc23)CC1 | – | – | 5.99 | 4.62 | –
9 | CN1CCC(c2c[nH]c3ccc(NC(=N)c4ccco4)cc23)CC1 | – | – | – | – | pIC50 [1]: 3.97
10 | CN1CC=C(c2c[nH]c3ccc(NC(=N)c4cccs4)cc23)CC1 | – | – | 6.72 | 4.65 | pIC50 (Nitric oxide synthase 1 [5]): 5.64
11 | CN1CC=C(c2c[nH]c3ccc(/N=C(\N)c4cccs4)cc23)CC1 | 105 | 118 | – | – | –
12 | Cc1ccc(C(=N)Nc2ccc3[nH]cc(C4=CCN(C)CC4)c3c2)s1 | – | 6 | 4.98 | 4.19 | –
13 | CN1CC=C(c2c[nH]c3ccc(C/N=C(\N)c4cccs4)cc23)CC1 | 66 | 50 | – | – | –
14 | CN1CC=C(c2c[nH]c3ccc(NC(=S)NC(=O)c4ccccc4)cc23)CC1 | – | 3 | – | – | –
15 | CN1CC=C(c2c[nH]c3ccc(CNC(=N)c4cccs4)cc23)CC1 | – | – | 5.89 | 4.19 | –
16 | CN1CCC(c2c[nH]c3ccc(/N=C(\N)c4ccco4)cc23)CC1 | 48 | 43 | – | – | –
17 | CN1CC=C(c2c[nH]c3ccc(NC(=N)c4ccco4)cc23)CC1.Cl.Cl | – | – | 6.26 | 4.44 | pIC50 (Cytochrome P450 2C9): < 4.00; pIC50 (Cytochrome P450 3A4): < 4.00; pIC50 (Cytochrome P450 2D6): 4.69; pIC50 (Cytochrome P450 2C19): < 4.00; pIC50 (Nitric oxide synthase 1 [5]): 5.59; Activity (Rattus norvegicus [6]): 94%; pIC50 (Cytochrome P450 1A2): 5.02; IC50 [7]: Not Active
